Reference: patent US8575114B2, “SGLT-2 inhibitors, methods of making them, and uses thereof” (Albany Molecular Research, Inc., priority 2010, dated 2013)

Tests used:
[1] = target: hSGLT-1 (Homo sapiens (Human), UniProt P13866); assay: [14C]AMG uptake inhibition in CHO-K1/hSGLT-1 cells; assay type: cell-based; details: 4 μM [14C]AMG, 3-hr incubation at 37° C., read-out: SGLT-1, IC50
From the text: (§1) The inhibitory activity of the compounds of this invention against the SGLT-1 or SGLT-2 transporters can be determined by the following assay. The cDNAs for the human genes of SGLT-1 (SLC5A1—solute carrier family 5 sodium/glucose cotransporter member 1; Accession #NM_000343.1) or SGLT-2 (SLC5A2—member 2; Accession #NM_003041.2) were synthesized (OriGene Technologies, Inc.) and sub-cloned into the mammalian expression vector, pcDNA3.1 (Invitrogen Corp., Carlsbad, Calif.) using standard molecular biology techniques. CHO-K1 cells transfected with pcDNA3.1 (Invitrogen Corp., Carlsbad, Calif.) containing either the full-length hSGLT-1 or hSGLT-2 using Lipofectamine 2000 (Invitrogen Corp., Carlsbad, Calif.) were selected for stable incorporation of the construct by resistance to the selective pressure of Geneticin (450 μg/ml; Invitrogen Corp., Carlsbad, Calif.). Monoclonal cell lines isolated by minimal dilution were screened for uptake activity of radiolabled methyl α-D-glucopyranoside ([^14C]AMG), a non-metabolizable glucose analogue, and a single clone for each transporter was selected for maximal transporter activity to be used for evaluating the inhibitory activity of the compounds of this invention. In brief, 35,000 cells (CHO-K1/hSGLT-1 or CHO-K1/hSGLT-2) were plated per well of a black tissue culture treated 96-well plate in Ham's F12 media supplemented with 10% heat inactivated FBS and allowed to attached overnight at 37° C. and 5% CO2. Compounds were serially diluted 3-fold in DMSO generating a nine (9) data point dose response curve for each compound. Two replicates were performed per determination. The compounds were then diluted into Uptake Buffer (10 mM Hepes, 5 mM Tris, 137 mM NaCl, 5.4 mM KCl, 2.8 mM CaCl2, and 1.2 mM MgSO4, pH 7.4) with a final DMSO concentration of 0.9% (v/v). After the overnight incubation and prior to compound treatment, the cells were washed twice with Sodium Free Buffer in which the sodium chloride was replaced with 137 mM Choline Chloride, and then incubated with 4 μM [^14C]AMG in Uptake Buffer in the presence or absence of diluted compound. Following a 3-hr incubation at 37° C. and 5% CO2, the uptake reaction was stopped by washing the cells three (3) times with ice-cold D-PBS and then lysing the cells with 50 μl of Microscint-20. After 15-min, the amount of radioactivity that was incorporated into the cells was quantified using a Microbeta reader. Data were fit to an empirical four-parameter model to determine the inhibitor concentration at half-maximal response (IC50). The assay window was established by control wells incubated with [^14C]AMG in the presence or absence of sodium. A dose response curve for phlorizin was generated on every plate as a positive control.

[2] = target: hSGLT-2 (Homo sapiens (Human), UniProt P31639); assay: [14C]AMG uptake inhibition in CHO-K1/hSGLT-2 cells; assay type: cell-based; details: 4 μM [14C]AMG, 3-hr incubation at 37° C., read-out: SGLT2, IC50
Chain of hSGLT-2 (P31639 whole entry): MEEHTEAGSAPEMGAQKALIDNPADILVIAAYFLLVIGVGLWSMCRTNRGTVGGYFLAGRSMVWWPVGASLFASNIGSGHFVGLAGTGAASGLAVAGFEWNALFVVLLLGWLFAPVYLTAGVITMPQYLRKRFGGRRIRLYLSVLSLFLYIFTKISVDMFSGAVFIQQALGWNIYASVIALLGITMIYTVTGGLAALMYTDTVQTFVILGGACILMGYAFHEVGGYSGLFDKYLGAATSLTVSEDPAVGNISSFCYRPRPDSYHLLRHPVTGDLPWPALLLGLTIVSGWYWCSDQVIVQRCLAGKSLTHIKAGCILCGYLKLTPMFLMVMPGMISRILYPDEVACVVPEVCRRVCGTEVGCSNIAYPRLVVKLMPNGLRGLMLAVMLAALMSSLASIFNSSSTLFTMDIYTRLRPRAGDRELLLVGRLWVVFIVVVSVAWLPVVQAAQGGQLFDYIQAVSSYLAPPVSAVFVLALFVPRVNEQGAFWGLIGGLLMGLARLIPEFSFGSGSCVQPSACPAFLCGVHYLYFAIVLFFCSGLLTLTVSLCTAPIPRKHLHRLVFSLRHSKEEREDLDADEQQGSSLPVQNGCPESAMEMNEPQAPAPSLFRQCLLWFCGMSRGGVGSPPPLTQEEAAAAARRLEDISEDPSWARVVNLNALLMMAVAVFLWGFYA
Procedure: as §1, with “The cDNAs for the human genes of SGLT-1 (SLC5A1—solute carrier family 5 sodium/glucose cotransporter member 1; Accession #NM_000343.1) or SGLT-2 (SLC5A2—member 2; Accession #NM_003041.2) were synthesized (OriGene Technologies, Inc.) and sub-cloned into the mammalian expression vector, pcDNA3.1 (Invitrogen Corp., Carlsbad, Calif.) using standard molecular biology techniques.” left out, “The compounds were then diluted into Uptake Buffer (10 mM Hepes, 5 mM Tris, 137 mM NaCl, 5.4 mM KCl, 2.8 mM CaCl2, and 1.2 mM MgSO4, pH 7.4) with a final DMSO concentration of 0.9% (v/v). After the overnight incubation and prior to compound treatment, the cells were washed twice with Sodium Free Buffer in which the sodium chloride was replaced with 137 mM Choline Chloride, and then incubated with 4 μM [^14C]AMG in Uptake Buffer in the presence or absence of diluted compound.” left out, “After 15-min, the amount of radioactivity that was incorporated into the cells was quantified using a Microbeta reader.” left out

Chain of hSGLT-1 (P13866 whole entry): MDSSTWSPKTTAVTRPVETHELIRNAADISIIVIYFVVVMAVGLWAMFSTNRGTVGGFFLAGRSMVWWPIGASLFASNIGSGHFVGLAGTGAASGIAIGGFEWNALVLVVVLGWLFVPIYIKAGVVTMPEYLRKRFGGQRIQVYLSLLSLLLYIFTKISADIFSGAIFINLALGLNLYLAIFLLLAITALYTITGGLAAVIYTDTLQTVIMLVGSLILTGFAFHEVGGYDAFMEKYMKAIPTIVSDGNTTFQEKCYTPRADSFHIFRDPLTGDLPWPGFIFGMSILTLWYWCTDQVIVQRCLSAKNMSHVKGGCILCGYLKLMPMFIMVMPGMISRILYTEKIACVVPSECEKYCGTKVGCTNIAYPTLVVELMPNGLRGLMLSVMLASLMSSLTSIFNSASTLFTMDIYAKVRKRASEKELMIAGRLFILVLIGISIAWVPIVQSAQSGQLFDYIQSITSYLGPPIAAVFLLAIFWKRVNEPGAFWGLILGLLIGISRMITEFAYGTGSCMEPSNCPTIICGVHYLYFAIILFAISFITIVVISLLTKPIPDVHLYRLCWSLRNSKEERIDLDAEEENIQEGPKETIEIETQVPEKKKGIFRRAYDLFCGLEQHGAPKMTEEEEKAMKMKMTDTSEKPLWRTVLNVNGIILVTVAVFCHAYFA

| SMILES | IC50 [1] [µM] | IC50 [2] [nM] |
| --- | --- | --- |
| O=c1n(Cc2cc([C@@H]3O[C@H](CO)[C@@H](O)[C@H](O)[C@H]3O)ccc2Cl)nc2ccccn12 [I-1, 2-(2-chloro-5-((2S,3R,4R,5S,6R)-3,4,5-trihydroxy-6-(hydroxymethyl)tetrahydro-2H-pyran-2-yl)benzyl)-[1,2,4]triazolo[4,3-a]pyridin-3(2H)-one] | 24.2 | 82.8 |
| O=c1c2ccoc2ccn1Cc1cc([C@@H]2O[C@H](CO)[C@@H](O)[C@H](O)[C@H]2O)ccc1Cl [II-2, 5-(2-chloro-5-((2S,3R,4R,5S,6R)-3,4,5-trihydroxy-6-(hydroxymethyl)tetrahydro-2H-pyran-2-yl)benzyl)furo[3,2-c]pyridin-4(5H)-one] | 71.5 | 542 |
| OC[C@H]1O[C@@H](c2ccc(Cl)c(Cc3ccc4ncnn4c3)c2)[C@H](O)[C@@H](O)[C@@H]1O [II-1, (2S,3R,4R,5S,6R)-2-(3-([1,2,4]triazolo[1,5-a]pyridin-6-ylmethyl)-4-chlorophenyl)-6-(hydroxymethyl)tetrahydro-2H-pyran-3,4,5-triol] | > 90 | 226 |
